Test results taken from patent US9242996B2 (Novartis AG, priority 2013, dated 2016).

Each compound was assayed against activated ERK2 (Homo sapiens (Human), UniProt P28482) (assay: Activated ERK2 kinase assay, ERK2 New conditions (AlphaScreen, ERKtide phosphorylation)). Conditions: 0.25 nM ERK2, 200 nM ERKtide peptide, 35 μM ATP, 30 min preincubation.
Format: biochemical
Method: The assay is carried out in 50 mM HEPES [pH 7.5], 5 mM MgCl2, 1 mM DTT, 0.01% Tween-20, 0.05% BSA using 0.25 nM ERK2, 200 nM ERKtide peptide and 35 μM ATP (all concentrations are final in the reaction) in a total volume of 10.25 μL. […] Compound dilution series are prepared in 100% DMSO. ERK2 is preincubated with compounds for 30 minutes at ambient temperature. Reaction is initiated by addition of a substrate cocktail of ERKtide peptide and ATP and is allowed to proceed for 2-3 hours at ambient temperature. Reaction is terminated by addition of 10 μL of a 2× stop buffer consisting of 100 mM Tris-Cl [pH 7.5], 25 mM EDTA, 0.01% Tween 20, 10 μg/mL of AlphaScreen Protein A Acceptor Beads, 10 μg/mL of Streptavidin Donor Beads (PerkinElmer, Waltham, Mass.), and 1.4 μg/mL phospho-EGF Receptor (Thr669) antibody (Cat #3056, Cell Signaling Technology, Danvers, Mass.). Terminated reactions are read, after overnight incubation in the dark, on an EnVision Multilabel Plate Reader (PerkinElmer, Waltham, Mass.), with excitation and emission wavelengths set to 680 nm and 570 nm, respectively. IC50 values are determined using a four-parameter fit.

Sequence of activated ERK2 (P28482 whole entry): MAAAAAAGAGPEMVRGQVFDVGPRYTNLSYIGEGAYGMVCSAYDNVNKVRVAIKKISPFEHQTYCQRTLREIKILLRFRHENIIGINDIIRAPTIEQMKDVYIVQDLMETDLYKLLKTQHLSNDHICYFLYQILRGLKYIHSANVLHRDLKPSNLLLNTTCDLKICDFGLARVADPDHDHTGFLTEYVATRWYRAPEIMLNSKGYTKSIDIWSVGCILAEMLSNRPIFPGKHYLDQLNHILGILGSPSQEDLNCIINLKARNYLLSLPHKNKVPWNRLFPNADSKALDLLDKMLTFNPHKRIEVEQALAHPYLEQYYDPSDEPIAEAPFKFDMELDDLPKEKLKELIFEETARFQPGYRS

| SMILES | IC50 |
| --- | --- |
| COC(=O)N1CCC(c2cnc(N)c(-c3ccc(C(=O)N[C@H](CO)c4ccccc4)c(F)c3)n2)CC1 [Example 58, (S)-methyl 4-(5-amino-6-(3-fluoro-4-((2-hydroxy-1-phenylethyl)carbamoyl)phenyl)pyrazin-2-yl)piperidine-1-carboxylate] | 0.00361 µM |
| COC(=O)N1CCC(c2cnc(N)c(-c3ccc(C(=O)N[C@H](CO)c4cccc(Cl)c4)c(F)c3)n2)CC1 [Example 59, (S)-methyl 4-(5-amino-6-(4-((1-(3-chlorophenyl)-2-hydroxyethyl)carbamoyl)-3-fluorophenyl)pyrazin-2-yl)piperidine-1-carboxylate] | 0.00035 µM |
| CC(=O)N1CCC(c2cnc(N)c(-c3ccc(C(=O)N[C@H](CO)c4ccccc4)c(F)c3)n2)CC1 [Example 60, (S)-4-(6-(1-acetylpiperidin-4-yl)-3-aminopyrazin-2-yl)-2-fluoro-N-(2-hydroxy-1-phenylethyl)benzamide] | 0.0124 µM |
| CC(=O)N1CCC(c2cnc(N)c(-c3ccc(C(=O)N[C@H](CO)c4cccc(Cl)c4)c(F)c3)n2)CC1 [Example 61, (S)-4-(6-(1-acetylpiperidin-4-yl)-3-aminopyrazin-2-yl)-N-(1-(3-chlorophenyl)-2-hydroxyethyl)-2-fluorobenzamide] | 0.00124 µM |
| COC(=O)N1CCC(c2cnc(N)c(-c3ccc(C(=O)N[C@H](CO)c4ccccc4)c(F)c3)c2)C1 (stereo partly drawn) [Example 62, methyl 3-(6-amino-5-(3-fluoro-4-(((S)-2-hydroxy-1-phenylethyl)carbamoyl)phenyl)pyridin-3-yl)pyrrolidine-1-carboxylate] | 0.0641 µM |
| CS(=O)(=O)N1CCC(c2cnc(N)c(-c3ccc(C(=O)N[C@H](CO)c4ccccc4)c(F)c3)c2)C1 (stereo partly drawn) [Example 63, 4-(2-amino-5-(1-(methylsulfonyl)pyrrolidin-3-yl)pyridin-3-yl)-2-fluoro-N-((S)-2-hydroxy-1-phenylethyl)benzamide] | 0.0233 µM |
| CCOCCc1cnc(N)c(-c2ccc(C(=O)N[C@H](CO)c3ccccc3)c(F)c2)n1 [Example 72, (S)-4-(3-amino-6-(2-ethoxyethyl)pyrazin-2-yl)-2-fluoro-N-(2-hydroxy-1-phenylethyl)benzamide] | 0.177 µM |
| Nc1ncc(C2CCS(=O)(=O)CC2)cc1-c1ccc(C(=O)NCc2ccccc2)c(F)c1 [Example 78, 4-(2-amino-5-(1,1-dioxidotetrahydro-2H-thiopyran-4-yl)pyridin-3-yl)-N-benzyl-2-fluorobenzamide] | 0.172 µM |
| CS(=O)(=O)c1cccc(CNC(=O)c2ccc(-c3nc(C4CC4)cnc3N)cc2F)c1 [Example 99, 4-(3-amino-6-cyclopropylpyrazin-2-yl)-2-fluoro-N-(3-(methylsulfonyl)benzyl)benzamide] | 0.0121 µM |

The next lines start with the values.

| IC50 | SMILES |
| --- | --- |
| 0.00776 µM | C[C@@H]1C[C@H](c2cnc(N)c(-c3ccc(C(=O)NCc4cccc(S(C)(=O)=O)c4)cc3)n2)CCO1 [Example 100, 4-(3-amino-6-((2R,4R)-2-methyltetrahydro-2H-pyran-4-yl)pyrazin-2-yl)-N-(3-(methylsulfonyl)benzyl)benzamide] |
| 0.0769 µM | C[C@H]1C[C@@H](c2cnc(N)c(-c3ccc(C(=O)NCc4cccc(S(C)(=O)=O)c4)cc3)n2)CCO1 [Example 101, 4-(3-amino-6-((2S,4S)-2-methyltetrahydro-2H-pyran-4-yl)pyrazin-2-yl)-N-(3-(methylsulfonyl)benzyl)benzamide] |
| 0.191 µM | COC1CCC(c2cnc(N)c(-c3ccc(C(=O)NCc4ccccc4)c(F)c3)n2)C1 (stereo not shown) [Example 104, 4-(3-amino-6-(3-methoxycyclopentyl)pyrazin-2-yl)-N-benzyl-2-fluorobenzamide] |
| 0.00116 µM | Cn1cc(-c2cnc(N)c(-c3ccc(C(=O)N[C@H](CO)c4ccccc4)c(F)c3)c2)cn1 [Example 107, (S)-4-(2-amino-5-(1-methyl-1H-pyrazol-4-yl)pyridin-3-yl)-2-fluoro-N-(2-hydroxy-1-phenylethyl)benzamide] |
